The nature of series [1]: Drug interaction summary: effect of co-administered drugs on maribavir pharmacokinetics (Tables 1-A, 1-B). Particulars: concomitant drug with maribavir; observed and predicted. The text has this: Drug interaction studies were summarized based on Example 2 and other available data (e.g., in vitro and clinical data).
A short description of series [2]: Drug interaction summary: effect of maribavir 400 mg twice daily on co-administered drug pharmacokinetics (Tables 1-A, 1-C). It counts as in vivo, human. The conditions noted are these: for Effect on Concentration (of concomitant drug): concomitant drug with maribavir, observed and predicted; for Geometric Mean Ratio of co-administered drug PK with/without maribavir (No Effect = 1.00), AUC / Geometric Mean Ratio of co-administered drug PK with/without maribavir (No Effect = 1.00), Cmax: digoxin 0.5 mg single dose.

On the set-up of series [3]: species or system human. The conditions noted are these: in vivo. The source says: Accumulated data have shown that maribavir is metabolized primarily in the liver, and renal clearance is a minor route (representing less than 5 percent). VP 44469 (N-dealkylated Maribavir) was the principal metabolite of maribavir in both urine and feces. In plasma, unchanged maribavir and VP 44469 represented approximately 69% and 9.8% of total radioactivity, respectively. The hepatic metabolism of maribavir was primarily driven by cytochrome P450s. CYP3A4 and CYP1A2 were responsible for 70 to 85% and 15 to 30% of the CYP-driven pathways, respectively. Glucuronidation accounted for less than 20% of metabolism.
Distribution models evaluated included a full PBPK model and a minimal PBPK model, both of which consider liver and intestinal metabolism. Mass balance data from the [^14C] ADME study indicated a fraction absorbed of 0.83 or greater following oral administration of 400 mg dose of maribavir. Absorption models evaluated included a simple first-order absorption model and a more mechanistic “Advanced Dissolution Absorption and Metabolism” (ADAM) model.

Setting [4] is: in the presence of 400 mg twice daily maribavir, tacrolimus stable dose twice daily.

Regarding `NC(=O)N1c2ccccc2C=Cc2ccccc21` [Carbamazepine, reference compound], the “Effect on Concentration (of maribavir)” value in series [1] is recorded as “↓Maribavir”.

`CO[C@H]1C[C@@H]2CC[C@@H](C)[C@@](O)(O2)C(=O)C(=O)N2CCCC[C@H]2C(=O)O[C@H]([C@H](C)C[C@@H]2CC[C@@H](OCCO)[C@H](OC)C2)CC(=O)[C@H](C)/C=C(\C)[C@@H](O)[C@@H](OC)C(=O)[C@H](C)C[C@H](C)/C=C/C=C/C=C/1C` [Everolimus]: the “Effect on Concentration (of concomitant drug)” value (“Effect … (of concomitant drug)” for short) in series [2] is reported as “↑Everolimus”.

Consider `CCC1(c2ccccc2)C(=O)NC(=O)NC1=O` [Phenobarbital, reference compound], for which the “Effect on Concentration (of maribavir)” value in series [1] is “↓Maribavir”.

As to `O=C1NC(=O)C(c2ccccc2)(c2ccccc2)N1` [Phenytoin, reference compound], the “Effect on Concentration (of maribavir)” value in series [1] is listed as “↓Maribavir”.

Take `CO[C@H]1/C=C/O[C@@]2(C)Oc3c(C)c(O)c4c(c3C2=O)C2=NC3(CCN(CC(C)C)CC3)NC2=C(NC(=O)/C(C)=C\C=C\[C@H](C)[C@H](O)[C@@H](C)[C@@H](O)[C@@H](C)[C@H](OC(C)=O)[C@@H]1C)C4=O` [Rifabutin, reference compound]: the “Effect on Concentration (of maribavir)” value in series [1] is reported as “↓Maribavir”.

With `CO[C@H]1/C=C/O[C@@]2(C)Oc3c(C)c(O)c4c(O)c(c(/C=N/N5CCN(C)CC5)c(O)c4c3C2=O)NC(=O)/C(C)=C\C=C\[C@H](C)[C@H](O)[C@@H](C)[C@@H](O)[C@@H](C)[C@H](OC(C)=O)[C@@H]1C` [Rifampin, reference compound], the “Effect on Concentration (of maribavir)” value in series [1] is “↓Maribavir”.

Consider `CO[C@H]1C[C@@H]2CC[C@@H](C)[C@@](O)(O2)C(=O)C(=O)N2CCCC[C@H]2C(=O)O[C@H]([C@H](C)C[C@@H]2CC[C@@H](O)[C@H](OC)C2)CC(=O)[C@H](C)/C=C(\C)[C@@H](O)[C@@H](OC)C(=O)[C@H](C)C[C@H](C)/C=C/C=C/C=C/1C` [Sirolimus], for which the “Effect … (of concomitant drug)” value in series [2] was “↑Sirolimus”.

With `C=CC[C@@H]1/C=C(\C)C[C@H](C)C[C@H](OC)[C@H]2O[C@@](O)(C(=O)C(=O)N3CCCC[C@H]3C(=O)O[C@H](/C(C)=C/[C@@H]3CC[C@@H](O)[C@H](OC)C3)[C@H](C)[C@@H](O)CC1=O)[C@H](C)C[C@@H]2OC` [Tacrolimus], in series [2] (co-administration with maribavir), the “increase of tacrolimus exposure by maribavir” value is listed as 51%. In series [2], the “Effect … (of concomitant drug)” value was “↑Tacrolimus”. In addition, in series [2] (setting [4]), the “Geometric Mean Ratio of co-administered drug PK with/without maribavir (No Effect = 1.00), Ctrough” value was determined as 1.57; the “Geometric Mean Ratio of co-administered drug PK with/without maribavir (No Effect = 1.00), AUC” value is 1.51; the “Geometric Mean Ratio of co-administered drug PK with/without maribavir (No Effect = 1.00), Cmax” value amounted to 1.38.

Turning to `Nc1nc2cc(Cl)c(Cl)cc2n1[C@H]1O[C@@H](CO)[C@H](O)[C@@H]1O` [VP 44469, N-dealkylated Maribavir], in series [3], the “share of total radioactivity in plasma” value is roughly 9.8%.

As to `C[C@H]1O[C@@H](O[C@H]2[C@@H](O)C[C@H](O[C@H]3[C@@H](O)C[C@H](O[C@H]4CC[C@@]5(C)[C@H](CC[C@@H]6[C@@H]5C[C@@H](O)[C@]5(C)[C@@H](C7=CC(=O)OC7)CC[C@]65O)C4)O[C@@H]3C)O[C@@H]2C)C[C@H](O)[C@@H]1O` [digoxin], the “Effect … (of concomitant drug)” value in series [2] was “↑digoxin”. Besides, in series [2] (setting [4]), the “Geometric Mean Ratio of co-administered drug PK with/without maribavir (No Effect = 1.00), AUC” value is reported as 1.21 and the “Geometric Mean Ratio of co-administered drug PK with/without maribavir (No Effect = 1.00), Cmax” value is listed as 1.25.

The values above are taken from US12447170B2, “Use of maribavir in treatment regimens” (priority 2021, dated 2025).
